According to patent US8809526B2, “Synthesis of cyclopentaquinazolines” (ONYX Pharmaceuticals, Inc., priority 2010, dated 2014):
≈ marks a conversion by molar mass, not a printed value.

Assay: physchem
Assay type: physicochemical
Details: organic solvent or mixture
Protocol: A 22 L, 3 neck flask was equipped with an overhead stirrer, a N2 inlet, and a type-J Teflon® covered thermocouple. The flask was purged with N2 and charged with the crude alcohol 12 prepared above, acetonitrile (7 L) and triethylamine (1400 mL, 10.0 mol). The batch was cooled to ˜10° C.-15° C. using a cold water bath. To the resulting yellow-green suspension was added solid TBDMSCl (1125 g, 7.50 mol), portionwise over ˜20 minutes. The addition was mildly exothermic causing the internal reaction temperature to rise to ˜20° C. After the addition was complete the reaction was stirred overnight at 20° C. under an atmosphere of N2. The following morning the reaction was judged to be >95% complete by TLC or HPLC. The dark green reaction mixture was filtered through a plasticware filter pot (24″×11″) prepacked with gravity grade silica gel (3 kg-slurried in acetonitrile) and a top and bottom layer of celite 21 (500 grams each). The filter pot was rinsed with acetonitrile (10 L, ACS grade) prior to adding the reaction mixture to the pot. Once the reaction mixture containing green solids was added, the filter pot was rinsed with acetonitrile (80 L, ACS grade), collecting 10 L cuts. The washing operation was monitored by TLC until no more product was detected in the washings. This was concentrated in vacuo to afford 2.2 kg of crude which needed to be purified further by silica gel chromatography. […]

## CC(C)(C)[Si](C)(C)OCc1nc2cc3c(cc2c(=O)[nH]1)C(=O)CC3 [compound 7, 2-(t-Butyldimethylsiloxymethyl)-4,6-dioxo-3,4,7,8-tetrahydro-3H-cyclopenta[g]quinazoline]
Solubility in 1:1 hexanes:ethyl acetate
  solubility: 15 mg/mL (≈ 43.5 mM)
Solubility in ethyl acetate
  solubility: ~25 mg/mL (≈ 72.6 mM)
